Data on seven compounds can be found in paper PMC6222696, “Inhibition of UGT2B7 Enzyme Activity in Human and Rat Liver Microsomes by Herbal Constituents” (Molecules : A Journal of Synthetic Chemistry and Natural …, 2018).

The test system of data set [1] is UGT2B7. Briefly: Inhibition of ZDV glucuronidation in rat liver microsomes (RLM). To be noted: for IC50 at 90 min: rat. (In general: Liver microsomes are a subcellular fraction often used to study metabolism.)
Protocol: The livers were rinsed promptly with ice-cold distilled water followed by ice-cooled 67 mM potassium phosphate buffer (pH 7.4) containing 1.15% (w/v) KCl after removal from the rats. The livers were then homogenized in three volumes of the same buffer using Potter-Elvehjem homogenizer after blotted dry and weighed. After that, the homogenate was centrifuged at 12,500× g for 20 min at 4 °C. The resultant supernatant was further centrifuged at 100,000× g for 60 min at 4 °C to obtain the microsomal pellets. Each pellet obtained was scrapped and reconstituted in 0.3 mL of 67 mM potassium phosphate buffer with 1.15% (w/v) KCl and 20% (v/v) glycerol before homogenizing them together to obtain pooled microsomes. Microsomes were then transferred into several microfuge tubes and stored at −80 °C until used.
(§1) An incubation mixture in a total volume of 200 µL contained 100 mM Tris-HCl buffer at pH 7.4, 5 mM MgCl2, microsomal protein (0.2 mg/mL for HLM assay and 2 mg/mL for RLM assay) and 0.1 mg/mg protein of Brij58 was kept in ice for 10 min. […] The incubation volume was made up to 200 µL with distilled water in a 1.5 mL polypropylene microcentrifuge tube. After pre-incubation at 37 °C for 10 min in a shaking water bath, a reaction was started by the addition of 5 mM UDPGA and was further incubated (120 min for HLM and 90 min for RLM). Following the incubation, the reaction was terminated by adding 100 µL ice-cold acetonitrile containing 75 µM of 4MUG as the internal standard (IS). The sample was allowed for protein precipitation on ice for 15 min, then vortexed shortly, and centrifuged at 15,000 rpm for 10 min at 4 °C. Supernatant was transferred into HPLC vials for HPLC analysis.
Stock solutions for the herbal constituents were prepared at concentrations of 50 mM by dissolving them in their respective solvents. Andrographolide, arecoline, arecaidine, mangiferin and vanillin were dissolved in distilled water. […] Working solutions were prepared at concentrations of 5 mM in distilled water so that the final organic solvent concentrations in incubations were less than 2% (v/v).
(§2) Thirteen herbal constituents were screened for inhibition of ZDV glucuronidation in HLM and RLM. Screening experiments using three concentrations (1 µM, 10 µM and 100 µM) of each herbal constituent were conducted to screen for the inhibitory potential of the constituent. All incubation assays were performed in triplicate (n = 3).
The ZDVG concentration formed was quantified using the calibration curve of ZDVG. Final UGT2B7 specific activity value was expressed in pmol/min/mg protein.
Data set [2] has as its target T1, UGT2B7 (Homo sapiens, UniProt P16662).
T1 sequence (P16662 24-529): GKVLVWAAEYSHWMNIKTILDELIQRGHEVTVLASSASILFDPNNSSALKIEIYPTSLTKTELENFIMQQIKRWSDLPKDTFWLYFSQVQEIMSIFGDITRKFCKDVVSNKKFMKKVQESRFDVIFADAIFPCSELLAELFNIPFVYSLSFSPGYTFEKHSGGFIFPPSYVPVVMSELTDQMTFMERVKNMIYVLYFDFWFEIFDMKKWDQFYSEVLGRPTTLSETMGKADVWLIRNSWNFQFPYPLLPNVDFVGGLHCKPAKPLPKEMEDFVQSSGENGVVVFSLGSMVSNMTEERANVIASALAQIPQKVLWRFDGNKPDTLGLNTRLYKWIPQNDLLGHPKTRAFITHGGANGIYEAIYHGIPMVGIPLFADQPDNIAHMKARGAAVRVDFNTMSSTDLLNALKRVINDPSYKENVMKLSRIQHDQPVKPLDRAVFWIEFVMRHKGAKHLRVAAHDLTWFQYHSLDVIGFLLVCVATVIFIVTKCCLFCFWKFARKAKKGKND
More on the design: method as in PMID 24631340. The note with it: non-competitive inhibition; read-out: inhibition constant (Ki) for ZDV glucuronidation in HLM; cited from earlier work.

The subject of data set [3] is UGT2B7. The note with it: cited from earlier work; for effect on UGT2B7 in vitro (in words): 19 (curcumin), 37, 70 (ketamine), 19, 20, 22, 23 (andrographolide).
The test system of another data set is UGT nonspecific. Set-up: method as in ref 19-24 (andrographolide); 35-37 (mitragynine); 26, 27, 29, 31, 38, 39 (quercetin). The note with it: rats; ref 19-24 (andrographolide); 35-37 (mitragynine); 26, 27, 29, 31, 38, 39 (quercetin); cited from earlier work.
The next data set deals with UGT enzymes. To be noted: cited from earlier work; for inhibition of UGT enzymes in HLM with 4MU as substrate (in words): 4MU nonspecific UGT substrate.
The conditions of data set [4]: cited from earlier work; for maximum plasma concentration: humans.
The target of data set [5] is T1, UGT2B7. Description: Inhibition of ZDV glucuronidation in human liver microsomes (HLM).
Protocol: as §1
Stock solutions for the herbal constituents were prepared at concentrations of 50 mM by dissolving them in their respective solvents. […] Working solutions were prepared at concentrations of 5 mM in distilled water so that the final organic solvent concentrations in incubations were less than 2% (v/v).
as §2
(§3) The ZDVG concentration formed was quantified using the calibration curve of ZDVG. Final UGT2B7 specific activity value was expressed in pmol/min/mg protein. […] Km and Vmax were determined using the same software under the enzyme-kinetic inhibition (substrate inhibition) model.
In the next data set the test system is HLM. Set-up: method as in PMID 25204783. The note with it: cited from earlier work.
For data set [6], the system named is UGT2B7. Set-up: method as in PMID 29425147. The note with it: by inhibiting UGT2B7 activity; cited from earlier work.
In data set [7] the test system is gluthathione-S-transferases enzyme. Set-up: method as in PMID 15304356. To be noted: in vitro; cited from earlier work.
The subject of a further data set is CYP3A4. Set-up: method as in PMID 15270556. To be noted: in vitro; cited from earlier work.
For data set [8] the following is noted: rats, cited from earlier work.
In data set [9] the test system is UGT2B7. Briefly: ZDV glucuronidation kinetics in RLM. The note with it: for Km at 90 min / microsomal CLint: rat; for Km at 90 min: pH 7.4, Km; for microsomal CLint: rat liver microsomes (pooled), pH 7.4, CLint, Vmax/Km.
Protocol: as §1
Once the initial velocity conditions had been established, the ZDV concentrations were varied to generate a saturation curve for determination of Michaelis constant (Km) and maximal velocity of reaction (Vmax) values of ZDV glucuronidation in HLM and RLM. The experiments were conducted in the absence and presence of BSA. Under optimized conditions, substrate concentrations used in incubation assay were varied from 0–5 mM of ZDV for HLM assay and 0–30 mM of ZDV for RLM assay. All assays were performed in triplicates (n = 3). The enzyme kinetic parameters (Km and Vmax) were obtained by fitting kinetic models to the experimental data using GraphPad Prism version 5.01 for Windows.
as §3
In data set [10] the target is T1, UGT2B7. Description: in vitro. To be noted: HLM; for microsomal CLint: human liver microsomes, pH 7.4, CLint, Vmax/Km; for Km at 120 min: pH 7.4, Km, mean ± SD.
Protocol: An incubation mixture in a total volume of 200 µL contained 100 mM Tris-HCl buffer at pH 7.4, 5 mM MgCl2, microsomal protein (0.2 mg/mL for HLM assay and 2 mg/mL for RLM assay) and 0.1 mg/mg protein of Brij58 was kept in ice for 10 min. […] The incubation volume was made up to 200 µL with distilled water in a 1.5 mL polypropylene microcentrifuge tube. After pre-incubation at 37 °C for 10 min in a shaking water bath, a reaction was started by the addition of 5 mM UDPGA and was further incubated (120 min for HLM and 90 min for RLM). […] The sample was allowed for protein precipitation on ice for 15 min, then vortexed shortly, and centrifuged at 15,000 rpm for 10 min at 4 °C. Supernatant was transferred into HPLC vials for HPLC analysis.
Once the initial velocity conditions had been established, the ZDV concentrations were varied to generate a saturation curve for determination of Michaelis constant (Km) and maximal velocity of reaction (Vmax) values of ZDV glucuronidation in HLM and RLM. The experiments were conducted in the absence and presence of BSA. Under optimized conditions, substrate concentrations used in incubation assay were varied from 0–5 mM of ZDV for HLM assay and 0–30 mM of ZDV for RLM assay. All assays were performed in triplicates (n = 3).
as §3
For data set [11] the following is noted: humans, cited from earlier work.
The mark [12] stands for this setting: IC50 for inhibition of ZDV glucuronidation in HLM, human liver microsomes, ZDV as UGT2B7 probe substrate, 1% (w/v) BSA.
Where [13] appears, read: concentration showing 50% inhibition of ZDV glucuronidation in HLM (screening), screening at 1 µM, 10 µM and 100 µM.

Where “and” joins values, the source holds several entries; their conditions need not be identical. Equal entries are not always repeated. Where two headings read alike, the source gives them in different places. A value given as a limit tells only on which side of the number the result lay.

With `C=C1CC[C@@H]2[C@](C)(CO)[C@H](O)CC[C@@]2(C)[C@@H]1C/C=C1/C(=O)OC[C@H]1O` [Andrographolide, andrographolide], the “inhibition of ZDV glucuronidation in RLM (in words)” value in the data set with UGT2B7 [1] (rat liver microsomes) is reported as “weak inhibition”. Further, the Ki on UGT2B7 [2] is 6.1 µM. Besides, the “effect on UGT2B7 in vitro (in words)” value in the data set with UGT2B7 [3] was “inhibit”. Also, in the data set on UGT2B7 [3] (HLM, supersomes), the “UGT2B7, in vitro study” value was “UGT2B7 ↓ (HLM, supersomes)”. In addition, in the data set with UGT nonspecific, the “UGT nonspecific, in vivo/ex vivo study” value is recorded as “UGT nonspecific ↑ (rats)”. In addition, the “inhibition of UGT enzymes in HLM with 4MU as substrate (in words)” value in the data set with UGT enzymes is “weak inhibition”. Further, the maximum plasma concentration in data set [4] (oral 20 mg of andrographolide four times a day) was 1.34 µg/mL and 3.8 µM. In addition, the “maximum concentration in plasma” value in data set [4] (ingestion of 32.64 mg of andrographolide three times a day) is 32.41 ng/mL and 0.09 µM; in data set [4] (ingestion of 200 mg of andrographolide three times a day), 58.6 ng/mL and 0.17 µM. Besides, the concentration for half-maximal inhibition (IC50) against UGT2B7 [5] (setting [12]) was 6.18 ± 1.27 µM; at UGT2B7 [5] (setting [13]), under 100 µM. In the data set on HLM, the “glucuronidation as a substrate in HLM (in words)” value is “glucuronidated”.

As for `CNC1(c2ccccc2Cl)CCCCC1=O` (stereo not drawn) [ketamine, reference compound], the “effect on UGT2B7 in vitro (in words)” value in the data set on UGT2B7 [3] was “inhibit”.

For `CCC1CN2CCc3c([nH]c4cccc(OC)c34)C2CC1/C(=C\OC)C(=O)OC` (stereo not drawn) [mitragynine], the IC50 at 90 min in the data set with UGT2B7 [1] (pH 7.4, IC50 for inhibition of ZDV glucuronidation in RLM, rat liver microsomes, ZDV as probe substrate, 1% (w/v) BSA) is 51.2 ± 5.95 µM; in the data set on UGT2B7 [1] (pH 7.4, concentration inhibiting ZDV glucuronidation in RLM higher than 50% (screening), screening at 1 µM, 10 µM and 100 µM), under 100 µM. The “UGT nonspecific, in vivo/ex vivo study” value in the data set on UGT nonspecific is given as “UGT nonspecific ↑ (rats)”. Further, in the data set with UGT enzymes (at a concentration of 1 μM), the “inhibition of 4MU glucuronidation in HLM” value is “approximately 30 % of control activity”. Besides, the IC50 on UGT enzymes (read-out: IC50 for 4MU glucuronidation in HLM) is over 1 mM; against UGT2B7 [5] (setting [12]), 8.11 ± 4.48 µM; at UGT2B7 [5] (setting [13]), under 100 µM. Besides, the maximum plasma concentration in data set [4] (M. speciosa tea with 11 mg mitragynine for seven days then 23 mg on the eighth day) was 0.105 µg/mL and 0.26 µM.

With `C[C@@H]1[C@H]2c3cc4c(cc3O[C@@]35OCOC3=CC(=O)[C@H](C[C@H]1C)[C@@H]25)OCO4` [sauchinone], in the data set with UGT2B7 [6], the “effect on zidovudine (ZDV) concentration in mice blood (in words)” value is “elevated”.

`C/C1=C\CC(C)(C)/C=C/C(=O)/C(C)=C/CC1` [zerumbone]: the IC50 at 90 min is 8.14 ± 2.12 µM in the data set with UGT2B7 [1] (rat liver microsomes (pooled), pH 7.4, probe zidovudine (ZDV), at or below its Km, IC50 for inhibition of ZDV glucuronidation in RLM, rat liver microsomes, ZDV as probe substrate, 1% (w/v) BSA); under 100 µM with UGT2B7 [1] (rat liver microsomes (pooled), pH 7.4, probe zidovudine (ZDV), at or below its Km, concentration inhibiting ZDV glucuronidation in RLM higher than 50% (screening), screening at 1 µM, 10 µM and 100 µM). For the same compound, in [7], the “effect on Phase II gluthathione-S-transferases enzyme (in words)” value is “induce”. Besides, the IC50 is 4.57 ± 0.23 µM against UGT2B7 [5] (setting [12]) and under 100 µM against UGT2B7 [5] (setting [13]). Further, the “effect on metabolism mediated by CYP3A4 (in words)” value in the data set on CYP3A4 is “moderately inhibit”.

For `Cc1cn([C@H]2C[C@H](N=[N+]=[N-])[C@@H](CO)O2)c(=O)[nH]c1=O` [zidovudine, 3′-Azido-3′-deoxythymidine], the “in vivo systemic clearance” value is recorded as 0.18 L/h/kg in data set [8] (for 0.25 kg of rat) and 1.01 L/h/kg in data set [11] (for 70 kg of man). In addition, the “dose excreted as glucuronides” value in data set [8] is listed as about 10%; in data set [11] it was “approximately 75%”. Further, the Km at 90 min came to 6.77 ± 0.6 mM in the data set with UGT2B7 [9] (with 1% BSA, mean ± SD) and 8.84 ± 1.19 mM in the data set with UGT2B7 [9] (without 1% BSA, mean ± SD). The intrinsic metabolic clearance (microsomal CLint) amounted to 0.16 µL/min/mg in the data set on UGT2B7 [9] (with 1% BSA), 0.09 µL/min/mg in the data set on UGT2B7 [9] (without 1% BSA), 1.65 µL/min/mg on UGT2B7 [10] (with 1% BSA) and 0.32 µL/min/mg on UGT2B7 [10] (without 1% BSA). Further, in the data set on UGT2B7 [9] (without 1% BSA, mean ± SD), the maximum rate (Vmax) worked out at 770 ± 39.82 pmol/mg/min. The Km at 120 min at UGT2B7 [10] (with 1% BSA) was found to be 0.88 ± 0.05 mM; on UGT2B7 [10] (without 1% BSA), 3.4 ± 0.7 mM.

As for “kaempferol-3-O-rutinoside [kaempferol-3-rutinoside]”, the “inhibition of UGT enzymes in HLM with 4MU as substrate (in words)” value with UGT enzymes is “did not significantly inhibit”.

What is called Ki is a dissociation constant, usually derived from enzyme kinetics or from competition with a known ligand. In general, IC50 refers to the concentration that inhibits the measured activity by half. The term Km denotes the concentration of substrate that gives half-maximal velocity. By microsomal CLint is commonly meant the rate of metabolic loss divided by the concentration. The low end stands for greater metabolic stability, the high end for faster metabolism. In general, Vmax refers to the top rate of the reaction or transport when substrate is in excess.
